Results from patent publication US20230242526A1 (Zentaur Therapeutics International Limited, priority 2020, published 2023).

Columns and labels:
[1] = test system: human breast squamous HCC1806 cell line; experiment: CyQUANT Direct cell proliferation assay, HCC1806; assay type: cell-based; settings: HCC1806, 168 h, 7 days
Text: The human ovarian carcinoma OVCAR3 cell line (ATCC HTB-161™) or human breast squamous HCC1806 cell line (ATCC CRL 2335) were obtained from American Type Culture Collection (ATCC), and maintained in culture media according to the supplier's specification.
The CyQUANT® Direct Cell Proliferation Assay Kit (Invitrogen™, catalog No. G35012) was utilized to test the inhibitory activities of the CDK2 inhibitors described in this disclosure against OVCAR3 or HCC1806 tumor cells.
CyQUANT® Direct Cell Proliferation Assay: The spent medium from the purchased tumor cell culture plate was removed and the tumor cells were washed with PBS buffer twice. Trypsin (VWR catalog No. 0458-25G) was added to digest the tumor cells until tumor cells appeared round shaped and to dissociate adherent cells from the plate wall in which they are being cultured. Then RPMI-1640 media (HCC1806, Gibco™ catalog No, A10491-01) with 10% fetal bovine serum (FBS) (Hyclone™ catalog No. SV30160.03), or RPMI-1640 media (OVCAR-3, Gibco™ catalog No. 10370-021) with 20% FBS and 0.01 mg/mL insulin was added to stop the trypsin digestion reaction. The tumor cells were lightly agitated with a liquid transfer pipette to cause tumor cells suspended in the culture media. The cells were counted. The complete medium was used to prepare tumor cell suspension.
OVCAR3 or HCC1806 cells were seeded at 40 μL/well in 384-well plates in growth media containing FBS and cultured 24 hours in the incubator at 37° C., 5% CO2. […] Compound solutions were added by Agilent Bravo liquid handler. […] The control wells contained the growth medium having 0.1% DMSO. Cells were incubated at 37° C., 5% CO2 for 7 days.
CYQUANT Direct Cell Proliferation Assay (Molecular Probes, Eugene, Oreg.) was then performed following manufacturer's instructions to prepare the detection reagents. 50 μL of detection reagent was aliquot and added to each well and the cells were incubated at 37° C. for 1 hr.
The cell culture plates were placed on TECAN M1000 microplate reader to detect the fluorescence intensity at 508 nm excitation and 527 nm emission wavelengths. Graphpad Prism 6.0 software was used for data processing, preparing cell growth curve, calculating percentage inhibition on cell growth. IC50 values were calculated by concentration-response curve fitting utilizing a four-parameter analytical method using GraphPad Prism software.

in vitro = settings: microsomes
Method: (§1) Human liver microsomes (cat. No. 452161), mouse liver microsomes (cat. No. 452701), were purchased from Corning.
(§2) Samples were analyzed using LC-MS/MS using a SCIEX API 4000 mass spectrometer coupled with Agilent HPLC analytical system. After separation on a ZORBAX XDB-C18 column (5 μm, 50×2.1 mm, column No. 50-282) using an acetonitrile-water gradient system, peaks were analyzed by mass spectroscopy (MS) using ESI ionization in Q1 and Q3 scan mode.
(§3) The LC and MS are all controlled by Analyst software.
(§4) The liver microsomes were incubated with 1.0 μM of the testing compound at 37° C. The incubation mixture contained 100 mM PBS buffer (pH=7.4), 3 mM MgCl2 and 1 mM NADPH. The concentration of liver microsome in the incubation mixture was 0.5 mg/mL for testing compound, and 0.2 mg/mL for MDZ and the total volume is 0.2 mL. […] Aliquots were withdrawn at time points of 0 min, 5 min and 20 min for MDZ. The reactions were terminated by transferring the aliquots to a methanol solution containing the internal standard […] for analytical quantification. The quenched samples were analyzed by LC-MS/MS. The incubations were carried out in duplicates. The metabolic stability of the testing compounds by the liver microsomes of human and mice is expressed as elimination half-life (t1/2). The results are shown as the means of duplicate determinations±SD.

[2] = Body weight in the HCC1806 xenograft study; assay type: in vivo, BALB/c nude mice; settings: group mean, 30 mg/kg P.O. BID; for Body weight D0: day 0; for Body weight D3: day 3; for Body weight D7: day 7; for Body weight D10: day 10; for Body weight D14: day 14; for Body weight D17: day 17; for Body weight D21: day 21
Method: (§5) When the average tumor volume reached 80-120 mm^3, 42 tumor-bearing mice were randomized into 7 groups (6 mice per group) according to tumor volume. The grouping day was defined as Day 0. Treatment was applied immediately after grouping animals on the same day.
(§6) The body weight of the testing animals were measured twice a week after grouping. Tumor volumes by the length and width of the tumor were measured by electric calipers and the tumor volume (V) was calculated as follows: V=(length×width^2)/2. The individual relative tumor volume (RTV) was calculated as follows: RTV=Vt/V0, where Vt was the volume on each day, and V0 was the volume at the beginning of the treatment.
(§7) Results were expressed as mean±S.E.M. Comparisons between two groups were made by corresponding test, p<0.05 were considered to be significant.

HCC1806 s.c. xenografts = experiment: HCC1806 s.c. breast cancer xenograft efficacy (tumor volume, relative tumor volume, tumor weight, TGI); assay type: in vivo, BALB/c nude mice; settings: 30 mg/kg P.O. BID; for Tumor Growth Inhibition D3 / Tumor Growth Inhibition D7 / Tumor Growth Inhibition D10 / Tumor Growth Inhibition D14 / Tumor Growth Inhibition D17 / Tumor Growth Inhibition D21: vs control vehicle; for Tumor Growth Inhibition D3 / Tumor volume D3: day 3; for Tumor Growth Inhibition D7 / Tumor volume D7: day 7; for Tumor Growth Inhibition D10 / Tumor volume D10: day 10; for Tumor Growth Inhibition D14 / Tumor volume D14: day 14; for Tumor Growth Inhibition D17 / Tumor volume D17: day 17; for Tumor Growth Inhibition D21 / Tumor volume D21: day 21; for Tumor volume D0 / Tumor volume D3 / Tumor volume D7 / Tumor volume D10 / Tumor volume D14 / Tumor volume D17 / Tumor volume D21 / Tumor weight: group mean; for Tumor volume D0: day 0; for Tumor weight: end of the study (Day 21)
Method: The in vivo potency of anti-tumor activities of Comp. 4, Comp. 37, Comp. 5, Comp. 28, Comp. 163, and Comp. 164 have been evaluated on the growth of HCC1806 s.c. xenografts in BALB/c nude mice.
The testing compounds Comp. 4, Comp. 37, Comp. 5, Comp. 28, Comp. 163, and Comp. 164 were prepared according the synthetic routes set forth in the above Examples. The testing formulations for compounds Comp. 4, Comp. 37, Comp. 5, Comp. 28, Comp. 163, and Comp. 164 were prepared as liquid formulation in a liquid vehicle containing 0.1% Tween-80 (purchased form Sinopharm Chemical Reagent Co., Ltd, Lot No. 20190322), 0.5% methyl cellulose (purchased from SIGMA, Lot No. SLBR8963V) in water.
A total of 42+8 female BALB/c nude mice were ordered from Shanghai LC Laboratory Animal Co. Ltd. The animals were specific pathogen free and approximately 4-5 weeks old upon arrival at PharmaLegacy Laboratories.
HCC1806 cell cultures were maintained at 37° C. under 5% CO2 in RPMI-1640 medium supplemented with 10% FBS and were subsequently cultured within 10 passages before inoculated into the mice.
as §5, §6
Tumors were collected at the end of the study (Day 21), the mice were sacrificed. Tumor was collected, weighed, photographed.
as §7

[3] = In vitro liver microsome stability, mouse; settings: microsomes, pH 7.4
Method: as §1, §2, §3, §4

Structure (SMILES): [2H]C1([2H])CN(S(C)(=O)=O)CC([2H])([2H])C1Nc1ncc2cc(C)c(=O)n([C@@H]3CCC[C@@]3(C)O)c2n1 [Comp. 67, (−)-8-((1R,2R)-2-hydroxy-2-methylcyclopentyl)-6-methyl-2-((1-(methylsulfonyl)piperidin-4-yl-3,3,5,5-d4)amino)pyrido[2,3-d]pyrimidin-7(8H)-one]
- IC50 [1]: 65.9 nM

Structure (SMILES): [2H]C([2H])([2H])S(=O)(=O)N1CCC(Nc2ncc3ccc(=O)n([C@@H]4CCC[C@@]4(C)O)c3n2)CC1 [Comp. 55, (−)-8-((1R,2R)-2-hydroxy-2-methylcyclopentyl)-2-((1-((methyl-d3)sulfonyl)piperidin-4-yl)amino)pyrido[2,3-d]pyrimidin-7(8H)-one]
- half-life at 1 μM (in vitro; human, pH 7.4, t1/2 human): 346 min

Structure (SMILES): [2H]C([2H])([2H])c1cc2cnc(NC3([2H])C([2H])([2H])CN(S(=O)(=O)C([2H])([2H])[2H])CC3([2H])[2H])nc2n([C@@H]2CCC[C@@]2(C)O)c1=O [Comp. 163, (−)-8-((1R,2R)-2-hydroxy-2-methylcyclopentyl)-6-(methyl-d3)-2-((1-((methyl-d3)sulfonyl)piperidin-4-yl-3,3,4,5,5-d5)amino)pyrido[2,3-d]pyrimidin-7(8H)-one]
- Body weight D0 [2]: 17.54 g
- Body weight D3 [2]: 17.61 g
- Body weight D7 [2]: 17.72 g
- Body weight D10 [2]: 17.67 g
- Body weight D14 [2]: 18.32 g
- Body weight D17 [2]: 18.66 g
- Body weight D21 [2]: 17.95 g
- tumor volume compared with G1 vehicle on each day (HCC1806 s.c. xenografts): significant smaller tumor volume on day 7, 17 and 21
- tumor weight at the end of the study, in words (HCC1806 s.c. xenografts): lighter tumor but no statistic significance
- Tumor Growth Inhibition D3 (HCC1806 s.c. xenografts): 38.81%
- Tumor Growth Inhibition D7 (HCC1806 s.c. xenografts): 34.97%
- Tumor Growth Inhibition D10 (HCC1806 s.c. xenografts): 34.46%
- Tumor Growth Inhibition D14 (HCC1806 s.c. xenografts): 30.36%
- Tumor Growth Inhibition D17 (HCC1806 s.c. xenografts): 36.67%
- Tumor Growth Inhibition D21 (HCC1806 s.c. xenografts): 40.94%
- Tumor volume D0 (HCC1806 s.c. xenografts): 110.66 mm^3
- Tumor volume D3 (HCC1806 s.c. xenografts): 223.62 mm^3
- Tumor volume D7 (HCC1806 s.c. xenografts): 443.83 mm^3
- Tumor volume D10 (HCC1806 s.c. xenografts): 702.37 mm^3
- Tumor volume D14 (HCC1806 s.c. xenografts): 1048.55 mm^3
- Tumor volume D17 (HCC1806 s.c. xenografts): 1257.00 mm^3
- Tumor volume D21 (HCC1806 s.c. xenografts): 1397.61 mm^3
- Tumor weight (HCC1806 s.c. xenografts): 2.20 g

Structure (SMILES): [2H]C([2H])([2H])c1cc2cnc(NC3([2H])C([2H])([2H])CN(S(C)(=O)=O)CC3([2H])[2H])nc2n([C@@H]2CCC[C@@]2(C)O)c1=O [Comp. 164, (−)-8-((1R,2R)-2-hydroxy-2-methylcyclopentyl)-6-(methyl-d3)-2-((1-(methylsulfonyl)piperidin-4-yl-3,3,4,5,5-d5)amino)pyrido[2,3-d]pyrimidin-7(8H)-one]
- Body weight D0 [2]: 18.47 g
- Body weight D3 [2]: 18.47 g
- Body weight D7 [2]: 18.70 g
- Body weight D10 [2]: 18.37 g
- Body weight D14 [2]: 17.86 g
- Body weight D17 [2]: 18.20 g
- Body weight D21 [2]: 17.29 g
- tumor weight at the end of the study, in words (HCC1806 s.c. xenografts): lighter tumor but no statistic significance
- Tumor Growth Inhibition D3 (HCC1806 s.c. xenografts): 29.37%
- Tumor Growth Inhibition D7 (HCC1806 s.c. xenografts): 15.49%
- Tumor Growth Inhibition D10 (HCC1806 s.c. xenografts): 21.94%
- Tumor Growth Inhibition D14 (HCC1806 s.c. xenografts): 18.56%
- Tumor Growth Inhibition D17 (HCC1806 s.c. xenografts): 29.97%
- Tumor Growth Inhibition D21 (HCC1806 s.c. xenografts): 31.27%
- Tumor volume D0 (HCC1806 s.c. xenografts): 112.74 mm^3
- Tumor volume D3 (HCC1806 s.c. xenografts): 243.14 mm^3
- Tumor volume D7 (HCC1806 s.c. xenografts): 545.66 mm^3
- Tumor volume D10 (HCC1806 s.c. xenografts): 817.53 mm^3
- Tumor volume D14 (HCC1806 s.c. xenografts): 1209.55 mm^3
- Tumor volume D17 (HCC1806 s.c. xenografts): 1380.25 mm^3
- Tumor volume D21 (HCC1806 s.c. xenografts): 1610.30 mm^3
- Tumor weight (HCC1806 s.c. xenografts): 2.51 g

Structure (SMILES): C[C@@]1(O)CCC[C@H]1n1c(=O)c(C(F)F)cc2cnc(NC3CCN(S(C)(=O)=O)CC3)nc21 (racemic) [Comp. 2, (±)-8-(2-hydroxy-2-methylcyclopentyl)-6-difluoromethyl-2-((1-(methylsulfonyl)piperidin-4-yl)amino)pyrido[2,3-d]pyrimidin-7(8H)-one, reference compound]
- IC50 [1]: 59 nM

Structure (SMILES): [2H]C1(Nc2ncc3cc(C(F)F)c(=O)n([C@@H]4CCC[C@@]4(C)O)c3n2)CCN(S(C)(=O)=O)CC1 [Comp. 99, (−)-6-(difluoromethyl)-8-((1R,2R)-2-hydroxy-2-methylcyclopentyl)-2-((1-(methylsulfonyl)piperidin-4-yl-4-d)amino)pyrido[2,3-d]pyrimidin-7(8H)-one]
- IC50 [1]: 65.5 nM

Structure (SMILES): [2H]C(F)(F)c1cc2cnc(NC3CCN(S(=O)(=O)C([2H])([2H])[2H])CC3)nc2n([C@@H]2CCC[C@@]2(C)O)c1=O [Comp. 92, (−)-6-(difluoromethyl-d)-8-((1R,2R)-2-hydroxy-2-methylcyclopentyl)-2-((1-((methyl-d3)sulfonyl)piperidin-4-yl)amino)pyrido[2,3-d]pyrimidin-7(8H)-one]
- IC50 [1]: 67.7 nM

Structure (SMILES): [2H]C([2H])([2H])S(=O)(=O)N1CCC(Nc2ncc3cc(C)c(=O)n([C@@H]4CCC[C@@]4(C)O)c3n2)CC1 [Comp. 74, (−)-8-((1R,2R)-2-hydroxy-2-methylcyclopentyl)-6-methyl-2-((1-((methyl-d3)sulfonyl)piperidin-4-yl)amino)pyrido[2,3-d]pyrimidin-7(8H)-one]
- IC50 [1]: 83.7 nM

Structure (SMILES): [2H]C([2H])([2H])S(=O)(=O)N1CCC(Nc2ncc3cc(C(F)F)c(=O)n([C@@H]4CCC[C@@]4(C)O)c3n2)CC1 [Comp. 85, (−)-6-(difluoromethyl)-8-((1R,2R)-2-hydroxy-2-methylcyclopentyl)-2-((1-((methyl-d3)sulfonyl)piperidin-4-yl)amino)pyrido[2,3-d]pyrimidin-7(8H)-one]
- IC50 [1]: 84.5 nM

Structure (SMILES): Cc1ncc2n1-c1ccc(Cl)cc1C(c1ccccc1F)=NC2 [Midazolam, reference compound]
- half-life at 1 μM [3]: 4.59 min
- half-life at 1 μM (in vitro; pH 7.4): 16.3 min
